Values quoted from earlier work as cited in patent publication US20220177978A1, “METHODS OF PREDICTING AND PREVENTING CANCER IN PATIENTS HAVING PREMALIGNANT LESIONS” (INSERM (Institut National de la Santé et de la Recherche …, priority 2019, published 2022).

How the values were obtained:
[1] = biological target: JAK2 (Homo sapiens, UniProt O60674)
[2] = tested on: other JAK-family kinases

Chain of JAK2 (O60674 whole entry, species assumed): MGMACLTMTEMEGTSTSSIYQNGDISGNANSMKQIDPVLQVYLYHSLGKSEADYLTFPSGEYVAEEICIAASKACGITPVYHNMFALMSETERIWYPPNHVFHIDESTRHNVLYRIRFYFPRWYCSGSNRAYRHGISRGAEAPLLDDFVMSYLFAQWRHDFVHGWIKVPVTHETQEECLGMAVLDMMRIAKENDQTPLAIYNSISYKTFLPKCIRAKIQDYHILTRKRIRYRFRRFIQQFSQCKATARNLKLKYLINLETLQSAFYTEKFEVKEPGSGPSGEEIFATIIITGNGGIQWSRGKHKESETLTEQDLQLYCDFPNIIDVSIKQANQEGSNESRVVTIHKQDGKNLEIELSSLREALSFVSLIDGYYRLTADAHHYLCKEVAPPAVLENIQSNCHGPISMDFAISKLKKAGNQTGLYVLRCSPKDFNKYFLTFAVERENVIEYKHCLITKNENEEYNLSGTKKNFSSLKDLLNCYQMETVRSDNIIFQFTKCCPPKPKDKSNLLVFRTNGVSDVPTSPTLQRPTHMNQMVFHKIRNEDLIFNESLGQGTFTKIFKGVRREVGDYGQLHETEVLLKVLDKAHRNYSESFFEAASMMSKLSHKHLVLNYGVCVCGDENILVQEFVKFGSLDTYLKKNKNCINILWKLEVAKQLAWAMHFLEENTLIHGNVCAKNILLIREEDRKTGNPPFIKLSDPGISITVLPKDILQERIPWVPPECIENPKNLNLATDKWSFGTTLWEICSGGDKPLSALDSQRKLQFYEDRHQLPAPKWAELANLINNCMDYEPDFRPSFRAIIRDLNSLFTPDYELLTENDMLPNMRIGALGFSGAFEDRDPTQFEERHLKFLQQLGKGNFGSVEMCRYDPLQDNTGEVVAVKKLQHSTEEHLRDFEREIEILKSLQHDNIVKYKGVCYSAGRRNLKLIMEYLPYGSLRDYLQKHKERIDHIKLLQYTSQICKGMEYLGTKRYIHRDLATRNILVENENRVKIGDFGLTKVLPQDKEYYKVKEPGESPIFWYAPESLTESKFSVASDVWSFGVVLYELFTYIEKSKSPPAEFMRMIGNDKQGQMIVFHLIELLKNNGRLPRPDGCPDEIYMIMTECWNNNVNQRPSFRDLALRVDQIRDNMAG

IC50 [1]: < 1 nM
Compound: C[C@H](Nc1cc(-c2cnn(C)c2)cc(Nc2cnccn2)n1)c1ccc(F)cc1 [NS018]
selectivity for JAK2 over other JAK-family kinases [2]: 30-50 fold
